Earlier results on four compounds are cited in US20080096915A1, “COMPOSITIONS FOR THE TREATMENT OF METABOLIC DISORDERS” (Greenberg Traurig LLP, priority 2005, published 2008).

One series relates to hypertensives. Details: dose or concentration left out as unconfirmed. The conditions noted are these: 1050 hypertensives, for three months, dose doubled in one third; decreased from 176/104.
Series [1] has as its system patients whose blood pressure had not been normalized. The conditions noted are these: cicletanine 50 and 100 mg per day added to calcium channel blockers, beta blockers or ACE inhibitors.
A further series relates to patients. The note with it: 150-200 mg/day cicletanine, over 12 months; fell from 128.
Series [2] relates to Dahl salt-sensitive rats with salt-induced hypertension.
Another series deals with sulfonylurea receptor (Homo sapiens, UniProt Q09428).
For series [3] the following is noted: in vivo.

Sequence of sulfonylurea receptor (Q09428 whole entry): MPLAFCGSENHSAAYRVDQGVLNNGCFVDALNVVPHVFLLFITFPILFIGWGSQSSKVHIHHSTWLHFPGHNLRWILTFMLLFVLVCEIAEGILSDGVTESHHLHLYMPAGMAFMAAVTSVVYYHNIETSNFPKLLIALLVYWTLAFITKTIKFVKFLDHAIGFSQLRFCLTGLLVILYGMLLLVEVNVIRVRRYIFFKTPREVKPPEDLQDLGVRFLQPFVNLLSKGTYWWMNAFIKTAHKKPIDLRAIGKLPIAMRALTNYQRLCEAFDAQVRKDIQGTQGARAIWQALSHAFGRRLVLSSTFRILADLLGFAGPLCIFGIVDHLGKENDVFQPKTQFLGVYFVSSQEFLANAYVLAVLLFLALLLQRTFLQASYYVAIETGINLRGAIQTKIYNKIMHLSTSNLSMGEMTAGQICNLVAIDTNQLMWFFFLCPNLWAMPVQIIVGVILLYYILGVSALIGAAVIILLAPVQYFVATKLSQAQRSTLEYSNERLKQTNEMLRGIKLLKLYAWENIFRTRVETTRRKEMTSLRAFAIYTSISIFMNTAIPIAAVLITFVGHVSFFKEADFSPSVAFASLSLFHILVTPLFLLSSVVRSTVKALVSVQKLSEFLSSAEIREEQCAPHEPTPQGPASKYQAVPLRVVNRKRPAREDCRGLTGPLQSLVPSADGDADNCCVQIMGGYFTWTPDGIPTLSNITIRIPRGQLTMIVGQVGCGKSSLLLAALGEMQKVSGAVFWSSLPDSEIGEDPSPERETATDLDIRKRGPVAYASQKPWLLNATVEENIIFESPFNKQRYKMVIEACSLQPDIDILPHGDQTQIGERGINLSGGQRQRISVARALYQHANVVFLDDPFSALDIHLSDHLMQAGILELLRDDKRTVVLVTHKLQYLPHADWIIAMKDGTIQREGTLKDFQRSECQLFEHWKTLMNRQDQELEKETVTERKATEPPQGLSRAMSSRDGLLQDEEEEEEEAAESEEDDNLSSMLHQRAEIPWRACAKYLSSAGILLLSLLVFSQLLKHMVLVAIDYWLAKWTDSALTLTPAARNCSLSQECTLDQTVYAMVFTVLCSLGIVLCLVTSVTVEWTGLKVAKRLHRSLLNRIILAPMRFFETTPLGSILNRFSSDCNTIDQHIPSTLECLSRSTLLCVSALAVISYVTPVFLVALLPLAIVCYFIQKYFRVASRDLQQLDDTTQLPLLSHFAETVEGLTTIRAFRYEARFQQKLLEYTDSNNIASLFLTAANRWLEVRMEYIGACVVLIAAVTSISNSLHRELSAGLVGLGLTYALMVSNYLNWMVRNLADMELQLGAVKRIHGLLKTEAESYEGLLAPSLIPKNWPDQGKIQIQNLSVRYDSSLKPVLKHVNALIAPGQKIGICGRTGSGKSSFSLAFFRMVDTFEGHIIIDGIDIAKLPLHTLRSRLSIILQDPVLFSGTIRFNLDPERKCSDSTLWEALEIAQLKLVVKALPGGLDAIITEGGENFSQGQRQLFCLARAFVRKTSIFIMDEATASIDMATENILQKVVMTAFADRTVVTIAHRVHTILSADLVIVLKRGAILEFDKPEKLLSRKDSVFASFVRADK
Sequence of sulfonylurea receptor (Q14654 whole entry partner): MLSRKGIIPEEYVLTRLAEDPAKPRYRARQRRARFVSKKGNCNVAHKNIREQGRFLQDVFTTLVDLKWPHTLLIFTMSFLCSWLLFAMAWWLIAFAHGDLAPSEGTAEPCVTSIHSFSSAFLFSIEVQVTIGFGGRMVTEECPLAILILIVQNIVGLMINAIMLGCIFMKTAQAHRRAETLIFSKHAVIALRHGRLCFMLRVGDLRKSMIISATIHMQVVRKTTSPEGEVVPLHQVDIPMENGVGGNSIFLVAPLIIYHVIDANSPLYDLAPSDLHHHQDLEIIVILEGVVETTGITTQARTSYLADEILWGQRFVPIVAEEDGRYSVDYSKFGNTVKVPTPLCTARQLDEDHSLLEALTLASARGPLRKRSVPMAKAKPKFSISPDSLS

For the compound `CCCCNC(=O)NS(=O)(=O)c1ccc(C)cc1` [tolbutamide], the “peak insulin response to tolbutamide, before cicletanine administration” value in the series with healthy subjects (10 healthy subjects, single intravenous dose of tolbutamide alone) is recorded as 29.2 mU/L.
Take `Cc1ncc2c(c1O)COC2c1ccc(Cl)cc1` (racemic) [cicletanine, +−3-(4-chlorophenyl)-1,3-dihydro-6-methylfuro-[3,4-c]pyridin-7-ol]: the “blood pressure after treatment” value with hypertensives is reported as 151/86. In addition, the “patients whose blood pressure was normalized” value in series [1] was 50 % of patients. Also, in the series on healthy subjects (10 healthy subjects, single intravenous tolbutamide after 7 days of cicletanine 100 mg per day), the “peak insulin response to tolbutamide, following cicletanine administration” value is 17.4 mU/L. In the series on healthy subjects (after 7 days of cicletanine 100 mg per day), the “hypoglycemic effect of tolbutamide following cicletanine administration” value is “did not change”. Also, in the series with patients, the “average triglyceride level after treatment” value is 104 mg/dL. For the same compound, in series [2], the “high-density lipoprotein (HDL) cholesterol” value is on record as “increased” and the “low-density lipoprotein (LDL) cholesterol” value is recorded as “significantly decreased”.
With `Cc1cnc(C(=O)NCCc2ccc(S(=O)(=O)NC(=O)NC3CCCCC3)cc2)cn1` [glipizide], the “concentration range that saturates receptors” value on sulfonylurea receptor is “low nanomolar”.
For `COc1ccc(Cl)cc1C(=O)NCCc1ccc(S(=O)(=O)NC(=O)NC2CCCCC2)cc1` [glyburide], the plasma half-life in series [3] was 4 to 11 h.
